From patent US9353082B2, “Pharmaceutical compounds” (BIAL—PORTELA & CA, S.A., priority 2008, dated 2016)

Each molecule was assayed against T1, FAAH (Rattus norvegicus, UniProt P97612) (assay: In vitro FAAH activity in rat brain membranes, 3H-AEA substrate, % of control). Settings: 100 nM test compound, low value = strong inhibitor.
T1 construct: Frozen brains (without cerebellum) from Wistar rats were used; from tissue; host or cells: Wistar rat brain (without cerebellum), washed membrane pellets
T1 sequence (P97612 1-579): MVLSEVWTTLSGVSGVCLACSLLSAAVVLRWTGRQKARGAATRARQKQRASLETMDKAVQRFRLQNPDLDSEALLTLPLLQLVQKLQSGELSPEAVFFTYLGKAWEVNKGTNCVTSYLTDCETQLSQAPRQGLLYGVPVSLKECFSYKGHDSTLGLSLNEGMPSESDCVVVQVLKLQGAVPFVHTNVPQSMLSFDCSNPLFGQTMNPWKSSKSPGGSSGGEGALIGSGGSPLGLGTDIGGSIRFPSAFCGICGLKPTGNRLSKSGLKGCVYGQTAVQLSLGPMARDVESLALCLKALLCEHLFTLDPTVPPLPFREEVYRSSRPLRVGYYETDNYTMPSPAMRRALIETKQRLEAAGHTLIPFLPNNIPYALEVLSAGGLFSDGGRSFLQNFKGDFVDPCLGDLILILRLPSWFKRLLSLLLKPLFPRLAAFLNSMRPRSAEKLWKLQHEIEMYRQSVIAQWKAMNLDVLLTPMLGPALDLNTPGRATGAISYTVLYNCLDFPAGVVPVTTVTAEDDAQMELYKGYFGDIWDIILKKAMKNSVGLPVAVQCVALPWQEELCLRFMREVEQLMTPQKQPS
Assay type: biochemical, Wistar rats
Method: 3. Biological Efficacy of Compounds of the Invention The in vitro test was performed according to the protocol described below. The controls for both in vitro and in vivo were the reaction mix minus the test compounds. Therefore, a low value in Table 1 below for the test compounds indicates a strong inhibitor.
The in vitro pharmaceutical FAAH activity was determined according to the following method:
Frozen brains (without cerebellum) from Wistar rats were used, and each brain was homogenized in 15 ml 1 mM MgCL2, […] HEPES pH 7.0 with Potter Elvejhem (8 strokes at 500 rpm). Homogenates were centrifuged for 20 min at 36000 g at 4° C. (Beckman, 70Ti rotor). Pellets were resuspended in 15 ml of the same buffer and centrifuged under the same conditions. Pellets were resuspended in 15 ml of the same buffer and incubated for 15 min at 37° C. after which they were centrifuged for 20 min at 36000 g at 4° C. Each pellet was then resuspended in 15 ml 3 mM MgCl2, 1 mM EDTA, 50 mM Tris pH 7.4 and protein determined with BioRad Protein Assay (BioRad) using a standard curve of BSA (50-250 μg/ml). The membrane suspensions were aliquoted and stored at −80° C.
The FAAH activity was determined using AEA (labelled with 3H in the ethanolamine part of the molecule) as substrate and measuring the 3H-ethanolamine formed. Reaction mix (total volume of 200 up contained: 2 μM AEA (2 μM AEA+5 nM 3H-AEA), 0.1% fatty acid free BSA, 5 μg protein, in 1 mM EDTA, 10 mM Tris pH 7.6 and 10 μM or 0.1 μM compounds. Stock solutions of the compounds to test (10 mM) were prepared in 100% DMSO and the DMSO concentration in the assay was 0.1%. After a 15 min preincubation period at 37° C., reaction was started by the addition of the substrate solution ([…]). Reaction was carried out for 10 min before termination by the addition of 400 μl activated charcoal suspension (8 g charcoal in 32 ml 0.5 M HCl in continuous agitation). After a 30 min incubation period at room temperature with agitation, charcoal was sedimented by centrifugation in microfuge (10 min at 13000 rpm). 200 μl of the supernatant were added to 800 μl Optiphase Supermix scintillation cocktail previously distributed in 24-well plates. Counts per minute (cpm) were determined in Microbeta TriLux scintillation counter (10 min counting or until s=2).
In each assay blanks (no protein, usually below 200 cpm) and controls (no compound) were present. The results are reported in Table 1 as % of control after blank subtraction.
With `O=C(N1CCN(c2ccc(OCc3ccccc3)cc2)CC1)n1nnc2ccccc21` [Compound 91, (1H-benzo[d][1,2,3]triazol-1-yl)(4-(4-(benzyloxy)phenyl)piperazin-1-yl)methanone] the “In Vitro FAAH activity, 100 nM” value was 0 % of control. `Cl.O=C(N1CCC(N2CCCC2)CC1)n1nnc2ccccc21` [Compound 92, (1H-benzo[d][1,2,3]triazol-1-yl)(4-(pyrrolidin-1-yl)piperidin-1-yl)methanone hydrochloride] was tested, and the “In Vitro FAAH activity, 100 nM” value was 96 % of control. `Cl.O=C(N1CCN(Cc2ccccc2)CC1)n1nnc2ccccc21` [Compound 93, (1H-benzo[d][1,2,3]triazol-1-yl)(4-benzylpiperazin-1-yl)methanone hydrochloride] was tested, and the “In Vitro FAAH activity, 100 nM” value was 0 % of control. With `O=C(N1CCC(c2ccccc2)CC1)n1nnc2ccccc21` [Compound 94, (1H-benzo[d][1,2,3]triazol-1-yl)(4-phenylpiperidin-1-yl)methanone] the “In Vitro FAAH activity, 100 nM” value was 0 % of control. With `CN(C(=O)n1nnc2cc(-c3cccc(C#N)c3)ccc21)C1CCCCC1` [Compound 95, 5-(3-cyanophenyl)-N-cyclohexyl-N-methyl-1H-benzo[d][1,2,3]triazole-1-carboxamide] the “In Vitro FAAH activity, 100 nM” value was 0.7 % of control. For `CN(C(=O)n1nnc2cc(-c3ccc(F)cc3)ccc21)C1CCCCC1` [Compound 96, N-cyclohexyl-5-(4-fluorophenyl)-N-methyl-1H-benzo[d][1,2,3]triazole-1-carboxamide], the “In Vitro FAAH activity, 100 nM” value was 14.3 % of control. For `O=C(N1CCCC1)n1nnc2ccccc21` [Compound 98, (1H-benzo[d][1,2,3]triazol-1-yl)(pyrrolidin-1-yl)methanone], the “In Vitro FAAH activity, 100 nM” value was 0.6 % of control. `O=C(N1CCN(c2ccccc2)CC1)n1cnc(-c2ccccc2)c1` [Compound 101, (4-phenyl-1H-imidazol-1-yl)(4-phenylpiperazin-1-yl)methanone] was tested, and the “In Vitro FAAH activity, 100 nM” value was 0.5 % of control. In the case of `O=C(N1CCN(Cc2ccccc2)CC1)n1cnc(-c2ccccc2)c1` [Compound 102, (4-benzylpiperazin-1-yl)(4-phenyl-1H-imidazol-1-yl)methanone], the “In Vitro FAAH activity, 100 nM” value is reported as 0.9 % of control. `CN(C(=O)n1cnc(-c2ccccc2)c1)C1CCCCC1` [Compound 103, N-cyclohexyl-N-methyl-4-phenyl-1H-imidazole-1-carboxamide] was tested, and the “In Vitro FAAH activity, 100 nM” value was 37.5 % of control. `CCN(C(=O)n1nnc2ccccc21)C1CCCCC1` [Compound 104, N-cyclohexyl-N-ethyl-1H-benzo[d][1,2,3]triazole-1-carboxamide] was tested, and the “In Vitro FAAH activity, 100 nM” value was 94.2 % of control. `Cl.O=C(N1CCC(CCN2CCCC2)CC1)n1nnc2ccccc21` [Compound 105, (1H-benzo[d][1,2,3]triazol-1-yl)(4-(2-(pyrrolidin-1-yl)ethyl)piperidin-1-yl)methanone hydrochloride] was tested, and the “In Vitro FAAH activity, 100 nM” value was 64.7 % of control. With `CN(C(=O)n1nnc2ccc(-c3ccc(F)cc3)cc21)C1CCCCC1` [Compound 106, N-cyclohexyl-6-(4-fluorophenyl)-N-methyl-1H-benzo[d][1,2,3]triazole-1-carboxamide] the “In Vitro FAAH activity, 100 nM” value was 2.3 % of control. With `CN(C(=O)n1nnc2cc(-c3cccc(C(=O)O)c3)ccc21)C1CCCCC1` [Compound 107, 3-(1-(cyclohexyl(methyl)carbamoyl)-1H-benzo[d][1,2,3]triazol-5-yl)benzoic acid] the “In Vitro FAAH activity, 100 nM” value was 13.5 % of control. In the case of `CN(C(=O)n1nnc2cc(-c3cccc(C(N)=O)c3)ccc21)C1CCCCC1` [Compound 108, 5-(3-carbamoylphenyl)-N-cyclohexyl-N-methyl-1H-benzo[d][1,2,3]triazole-1-carboxamide], the “In Vitro FAAH activity, 100 nM” value is reported as 7.4 % of control. For `CN(C(=O)n1nnc2ccc(-c3cccc(C(N)=O)c3)cc21)C1CCCCC1` [Compound 109, 6-(3-carbamoylphenyl)-N-cyclohexyl-N-methyl-1H-benzo[d][1,2,3]triazole-1-carboxamide], the “In Vitro FAAH activity, 100 nM” value was 0 % of control. `O=C(N1CCN(c2ccccc2)CC1)n1cnc(-c2ccccc2)n1` [Compound 111, (3-phenyl-1H-1,2,4-triazol-1-yl)(4-phenylpiperazin-1-yl)methanone] was tested, and the “In Vitro FAAH activity, 100 nM” value was 1.5 % of control. `NC(=O)c1ccc(-c2cn(C(=O)N3CCN(Cc4ccccc4)CC3)cn2)cc1` [Compound 112, 4-(1-(4-benzylpiperazine-1-carbonyl)-1H-imidazol-4-yl)benzamide] was tested, and the “In Vitro FAAH activity, 100 nM” value was 7.2 % of control. `CN(CCc1ccccc1)C(=O)n1nnc2ccccc21` [Compound 115, N-methyl-N-phenethyl-1H-benzo[d][1,2,3]triazole-1-carboxamide] was tested, and the “In Vitro FAAH activity, 100 nM” value was 0 % of control. In the case of `O=C(N1CCC(Oc2ccc(Cl)cc2)CC1)n1nnc2ccccc21` [Compound 117, (1H-benzo[d][1,2,3]triazol-1-yl)(4-(4-chlorophenoxy)piperidin-1-yl)methanone], the “In Vitro FAAH activity, 100 nM” value is reported as 0.1 % of control. In the case of `CN(CCCc1ccccc1)C(=O)n1nnc2ccccc21` [Compound 118, N-methyl-N-(3-phenylpropyl)-1H-benzo[d][1,2,3]triazole-1-carboxamide], the “In Vitro FAAH activity, 100 nM” value is reported as 0 % of control. `COc1cccc(CN(C)C(=O)n2nnc3ccccc32)c1` [Compound 119, N-(3-methoxybenzyl)-N-methyl-1H-benzo[d][1,2,3]triazole-1-carboxamide] was tested, and the “In Vitro FAAH activity, 100 nM” value was 0 % of control. In the case of `O=C(N1CCC(Oc2ccccc2)CC1)n1nnc2ccccc21` [Compound 120, (1H-benzo[d][1,2,3]triazol-1-yl)(4-phenoxypiperidin-1-yl)methanone], the “In Vitro FAAH activity, 100 nM” value is reported as 0.1 % of control. `CN1CCN(C2CCN(C(=O)n3nnc4ccccc43)CC2)CC1.Cl` [Compound 122, (1H-benzo[d][1,2,3]triazol-1-yl)(4-(4-methylpiperazin-1-yl)piperidin-1-yl)methanone hydrochloride] was tested, and the “In Vitro FAAH activity, 100 nM” value was 93 % of control. For `CN(Cc1cccc(Cl)c1)C(=O)n1nnc2ccccc21` [Compound 123, N-(3-chlorobenzyl)-N-methyl-1H-benzo[d][1,2,3]triazole-1-carboxamide], the “In Vitro FAAH activity, 100 nM” value was 0 % of control. For `Cl.O=C(N1CCN(Cc2ccccc2)CC1)n1cnc(-c2ccccc2)n1` [Compound 124, (4-benzylpiperazin-1-yl)(3-phenyl-1H-1,2,4-triazol-1-yl)methanone hydrochloride], the “In Vitro FAAH activity, 100 nM” value was 1.5 % of control. With `Cl.O=C(N1CCN(Cc2ccccc2)CC1)n1cnc(-c2ccc(OCc3ccccc3)cc2)n1` [Compound 125, (3-(4-(benzyloxy)phenyl)-1H-1,2,4-triazol-1-yl)(4-benzylpiperazin-1-yl)methanone hydrochloride] the “In Vitro FAAH activity, 100 nM” value was 53.5 % of control. For `O=C(N1CCC(OCc2ccccc2)CC1)n1nnc2ccccc21` [Compound 128, (1H-benzo[d][1,2,3]triazol-1-yl)(4-(benzyloxy)piperidin-1-yl)methanone], the “In Vitro FAAH activity, 100 nM” value was 0 % of control. For `CN(Cc1ccc(F)cc1)C(=O)n1nnc2ccccc21` [Compound 130, N-(4-fluorobenzyl)-N-methyl-1H-benzo[d][1,2,3]triazole-1-carboxamide], the “In Vitro FAAH activity, 100 nM” value was 0 % of control.

Same assay, conditions: 10 uM test compound, low value = strong inhibitor
With `CN(C(=O)n1cnc(-c2ccccc2)c1)C1CCCCC1` [Compound 103, N-cyclohexyl-N-methyl-4-phenyl-1H-imidazole-1-carboxamide] the “In Vitro FAAH activity, 10 uM” value was 0 % of control.
